Here are results for 7 molecules from patent US8881823B2, “Environmentally friendly low temperature breaker systems and related methods” (Halliburton Energy Services, Inc., priority 2011, dated 2014).

Read-outs that look alike come from different tables or passages of the source.

Data set [1] in a line: Chemical oxygen demand (COD) test. Type of data set: physicochemical. The text has this:
Table 2 compares the biodegradability of GLDA and EDTA and summarizes chemical oxygen demand (COD) tests which indirectly measures the amount of organic compounds in water.

A short description of data set [2]: Compatibility and dissolution ability in potassium formate brine. Type of data set: physicochemical. How it is done:
In this Example, the compatibility and dissolution ability of various breaker systems with formate brine were evaluated. […] For each sample a 20% v/v breaker sample was prepared in three different concentrations of potassium formate brine (11 ppg, 12 ppg, and 13 ppg).
To determine the compatibility of each breaker with the potassium formate brine, each sample was checked for the formation of formate salts. This precipitation was indicative of an incompatibility of the breaker system with the formate brine. Samples in which precipitation was observed are noted with an asterisk (*).
The dissolution ability of the breaker systems was also tested in the various concentration of formate brine. […] The jars were then dried in an 90° F. oven for 16 hours. After the elapsed time, the amount of carbonate that remained was weighed and tabulated. The difference in weight represented the amount of carbonate that was dissolved by the breaker system and/or precipitated out as a result of being incompatible with the formate brine.

A short description of data set [3]: Biodegradability, OECD 301 D Closed Bottle Test. The text has this: The same protocol was used to test EDTA (“DISSOLVINE AM3-40” available from AkzoNobel Corporate) and sodium acetate.
A short description of data set [4]: Calcite dissolving capacity of breaker systems. The settings on record: 2.5 g BARACARB 5 in 50 mL test fluid, one hour. Type of data set: physicochemical. The protocol:
The calcite dissolving capacity of each breaker system was determined in the following manner. A known amount of a technical grade calcium carbonate (commercially available from Halliburton under the tradename “BARACARB 5”) was dried in an oven for 2 hours. […] The solution was subsequently filtered with a 1 micron fiber glass filter paper.

A short description of data set [5]: Miscibility and pH of breaker systems in fresh water. Type of data set: physicochemical. The settings on record: breaker system in fresh water, 150° F. for 16 hours. How it is done:
Several chelating agents and acids (breaker systems) were tested for their calcium carbonate dissolving capacity and miscibility in fresh water. Tests of the breaker systems were performed by adding a known volume of breaker system to a volume of brine needed to fill 100 ml in a jar. The jars were then sealed and swirled to mix the components. Samples containing 5%, 10%, or 20% v/v of chelating agents and acids were prepared. The jars were then placed in a static oven at 150° F. for 16 hours. Afterwards, miscibility of the components was observed and the pH of each mixture was tabulated.

A short description of data set [6]: Initial and over time miscibility and pH in potassium formate brines. The settings on record: for After Static Aging: overnight 150° F.; for pH Final: static 16 hrs @ 150° F. Type of data set: physicochemical. How it is done:
Completion breaker solutions were to be tested at 5%, 10%, and 20% by volume concentrations in each of the brines. The initial miscibility and the miscibility after static aging overnight at 150° F. were observed. Also, the pH of the final mixes was measured. The different concentrations of the breaker solutions were prepared with fresh water and filtered through a 1.6 μm glass fiber filter prior to testing.
The tests were run by adding the appropriate volume of the test breaker (5%, 10%, or 20% by volume) to the volume of the test brine needed to total 100 ml in a 4 ounce jar, sealing it, and swirling to mix the components. Observation was noted of the compatibility of the components.

[7] abbreviates: 5% by volume, potassium formate brine 11.0 lb/gal.
[8] abbreviates: 5% by volume, potassium formate brine 12.0 lb/gal.
Where [9] appears, read: 5% by volume, potassium formate brine 13.0 lb/gal.
[10] abbreviates: 10% by volume, potassium formate brine 11.0 lb/gal.
Where [11] appears, read: 10% by volume, potassium formate brine 12.0 lb/gal.
Setting [12] is: 10% by volume, potassium formate brine 13.0 lb/gal.
Setting [13] is: 20% by volume, potassium formate brine 11.0 lb/gal.
Setting [14] is: 20% by volume, potassium formate brine 12.0 lb/gal.
Where [15] appears, read: 15% (so in the source), potassium formate brine 13.0 lb/gal.

On to `O=C(O)CN(CCN(CC(=O)O)CC(=O)O)CC(=O)O` [EDTA, reference compound], for which the COD in data set [1] is reported as about 315 mg/g. Also, the “compatibility with the formate brine” value in data set [2] (20% v/v breaker, 11, 12 and 13 ppg potassium formate, precipitation of formate salts = incompatible) is on record as “only compatible with the formate brine at the lowest tested concentration”. Moreover, the “% Dissolved or precipitated out” value in data set [2] (20% v/v breaker, 11 ppg Potassium Formate) came out at 92%; in data set [2] (20% v/v breaker, 12 ppg Potassium Formate), 89%; in data set [2] (20% v/v breaker, 13 ppg Potassium Formate) it was 56%. The “Amount of carbonate remaining” value in data set [2] (20% v/v breaker, 11 ppg Potassium Formate, 2.5 g calcium carbonate, 16 hours, * = precipitation of formate salts) amounted to 0.21 g. The “Amount of carbonate remaining, g” value in data set [2] (20% v/v breaker, 12 ppg Potassium Formate, 2.5 g calcium carbonate, 16 hours, * = precipitation of formate salts) is given as 0.28* g; in data set [2] (20% v/v breaker, 13 ppg Potassium Formate, 2.5 g calcium carbonate, 16 hours, * = precipitation of formate salts) it was 1.10* g. For the same molecule, the “biodegradability (in words)” value in data set [3] (OECD 301D protocol) is “do not meet this standard”. For the same molecule, the Biodegradability entry in data set [3] (Table 2) is listed as “Difficult”.
Regarding `O=C(O)CN(CCOCCOCCN(CC(=O)O)CC(=O)O)CC(=O)O` [EGTA], in data set [4], the “% Carbonate Complexed or Dissolved” value worked out at 9.28% and the “Final Weight of BARACARB 5, g” value is 2.32 g. Also, the pH in data set [5] is on record as 11.
On to `O=C([O-])CC(NC(CC(=O)[O-])C(=O)[O-])C(=O)[O-].[Na+].[Na+].[Na+].[Na+]` (stereo not drawn) [Iminodisuccinate, sodium salt], for which, in data set [4], the “% Carbonate Complexed or Dissolved” value is given as 5.2% and the “Final Weight of BARACARB 5, g” value stood at 2.37 g. Further, the pH in data set [5] is 11.3.
`Cl.NC(N)=O` [Synthetic acid (HCl salt of urea), HCl salt of urea] yielded a pH in data set [5] of 0.88. Further, the “After Static Aging” value is “Slight haze” in data set [6] (setting [7]), “Very slight separation” in data set [6] (setting [8]) and “Hazy” in data set [6] (setting [9]). Moreover, the “pH Final” value worked out at 9.9 in data set [6] (setting [7]); 11.4 in data set [6] (setting [8]); 12.2 in data set [6] (setting [9]); 7.0 in data set [6] (setting [10]); 9.4 in data set [6] (setting [11]); 11.0 in data set [6] (setting [12]). Besides, the “pH Final” value in data set [6] (setting [13]) is on record as 6.0; in data set [6] (setting [14]), 7.0; in data set [6] (20% by volume, potassium formate brine 13.0 lb/gal), 7.5. In addition, the “Initial Observation” value in data set [6] (setting [8]) was “Clear, totally soluble”. Besides, the “solubility / miscibility in the potassium formate brines” value in data set [6] (tested concentrations, 11.0-13.0 lb/gal brines) is reported as “not soluble in the brines, but dispersed evenly”.
Regarding `O=C(O)CN(CCO)CCN(CC(=O)O)CC(=O)O` [HEDTA], the “biodegradability (in words)” value in data set [3] is on record as “do not meet this standard”.
On to `N.N.O=C(O)CN(CCN(CC(=O)O)CC(=O)O)CC(=O)O` [EDTA ammonium salt, reference compound], for which the “% Carbonate Complexed or Dissolved” value in data set [4] is 38.4%. Also, the “Final Weight of BARACARB 5, g” value in data set [4] stood at 1.54 g. This molecule also displayed a pH in data set [5] of 4.77. The “Initial Observation” value in data set [6] (setting [7]) is recorded as “Clear, totally soluble”; in data set [6] (setting [8]), “Clear, totally soluble”; in data set [6] (setting [9]), “Clear, totally soluble”; in data set [6] (setting [10]), “Clear, totally soluble”; in data set [6] (setting [11]) it was “Clear, totally soluble”; in data set [6] (setting [12]), “Clear, totally soluble”. The “Initial Observation” value in data set [6] (setting [15]) is given as “Clear, totally soluble”; in data set [6] (setting [13]) it was “Clear, totally soluble”; in data set [6] (setting [14]), “Clear, totally soluble”. In addition, the “After Static Aging” value is recorded as “Clear, totally soluble †” in data set [6] (setting [7]); “Clear, totally soluble †” in data set [6] (setting [8]); “Clear, totally soluble †” in data set [6] (setting [9]); “Clear, totally soluble †” in data set [6] (setting [10]); “Clear, totally soluble †” in data set [6] (setting [11]); “Clear, totally soluble †” in data set [6] (setting [12]). Besides, the “After Static Aging” value in data set [6] (setting [15]) is recorded as “Clear, totally soluble †”; in data set [6] (setting [13]) it was “Clear, totally soluble †”; in data set [6] (setting [14]), “Clear, totally soluble †”. Also, the “pH Final” value in data set [6] (setting [7]) was 9.6; in data set [6] (setting [8]), 10.8; in data set [6] (setting [9]) it was 11.4; in data set [6] (setting [10]), 8.6; in data set [6] (setting [11]), 9.8; in data set [6] (setting [12]), 10.7. The “pH Final” value in data set [6] (setting [15]) turned out to be 9.9; in data set [6] (setting [13]), 7.0; in data set [6] (setting [14]) it was 8.0.
As to `CC(=O)[O-].[Na+]` [sodium acetate], the “biodegradability (in words)” value in data set [3] (OECD 301D protocol) is given as “readily biodegradable”.
